Test results reported in US20070264349A1, “Nano-structured compositions and methods of making and using the same” (Novavax, Inc., priority 2006, published 2007).

How the values were obtained:
[1] = cited from earlier work
[2] = Particle size measurement (Coulter particle sizer LS230); format: physicochemical; settings: for mean size of nanoemulsion droplets comprising the active ingredient: after high-pressure homogenization, 10,000 psi (Examples 1, 2, 4); for particle size of a significant portion / almost all of the particles: formulations comprising ethanol (Tables 5 and 6), FIG. 10, FIG. 11; for mean particle size of raw active ingredient: before particle size reduction
Source text: A Coulter particle sizer LS230 was used to measure particle size.

[3] = after high-pressure homogenization (Examples 1, 4, 7)
[4] = after high-pressure homogenization, 10,000 psi (Examples 5, 6, 7)

In the case of `Nc1nc2c(ncn2COCCO)c(=O)[nH]1` [acyclovir, 2-amino-1,9-dihydro-9-[(2-hydroxyethoxy)methyl]-6H-purin-6-one], the “solubility in water” value [1] is given as “moderately soluble”, the “size below which 100% of the particles lie” value [2, 3] is given as “less than 3 microns” and the “mean size of nanoemulsion droplets comprising the active ingredient” value [2] is given as 132 nm. The “milled mean particle size” value [2, 4] was “about 2 microns”, the “size below which 100% of the particles lie” value ([2]; after particle size reduction (FIG. 2, FIG. 4)) was “less than 3 μm” and the “particle size of a significant portion of the particles” value ([2]; formulation comprising N-methyl-pyrrolidinone (Table 4), FIG. 9, bimodal) was “less than 0.4 microns”. The “particle size of a significant portion / almost all of the particles” value [2] was “less than 0.1 microns” and the “mean particle size of raw active ingredient” value [2] was 54 μm.

For “[R—[R*,R*-(E)]]-cyclic(L-alanyl-D-alanyl-N-methyl-L-leucyl-N-methyl-L-leucyl-N-methyl-L-valyl-3-hydroxy-N, 4-dimethyl-L-2-amino-6-octenoyl-L-α-amino-butyryl-N-methylglycyl-N-methyl-L-leucyl-L-valyl-N-methyl-L-leucyl) [cyclosporine]”, the “particle size of a significant portion / almost all of the particles” value [2] was “less than 1 microns”.

In the case of `C[C@]12CC[C@@H]3c4ccc(O)cc4CC[C@H]3[C@@H]1CC[C@@H]2O` [estradiol, estra-1,3,5(10)-triene-3,17β-diol], the “mean size of nanoemulsion droplets comprising the active ingredient” value [2] is reported as “about 93 nm” and the “mean particle size of raw active ingredient” value [2] is reported as “about 542 microns”.

For `O=C(c1ccc(OCCN2CCCCC2)cc1)c1c(-c2ccc(O)cc2)sc2cc(O)ccc12` [raloxifene], the “solubility in water” value [1] is listed as “very slightly soluble”, the “size below which 100% of the particles lie” value [2, 3] is listed as “below 10 microns” and the “milled mean particle size” value [2, 4] is listed as 2.79 microns. For the same compound, the “mean particle size of raw active ingredient” value [2] was 15-30 μm.

For `CN1CCCC1c1cccnc1` (stereo not drawn) [Nicotine, S-3-(1-methyl-2-pyrrolidinyl) pyridine], the “solubility in water” value [1] is given as “freely water-soluble”.

With `NCCCC(O)(P(=O)(O)O)P(=O)(O)O` [alendronic acid] the “milled mean particle size” value ([2]; after high-pressure homogenization, 10,000 psi (Example 3)) was “about 0.2 μm” and the “mean particle size of raw active ingredient” value [2] was 190-210 μm.
